In patent publication US9573899B2, “USP7 inhibitor compounds and methods of use” (Genentech, Inc., priority 2015, dated 2017):

Target: T1, USP7, full-length, native C-Terminus (Homo sapiens, UniProt Q93009)
T1 construct: USP7, full-length, native C-Terminus, 0.2 nM
Experiment: Biochemical USP7 assay with Ubiquitin-Rho110 substrate, compounds pre-incubated with USP7 (USP7_Ub-Rho preInc)
Settings: compounds pre-mixed with USP7, 1 hour incubation, before substrate; read-out: USP7 Ub-Rho preInc (IC50)
Method: Biochemical USP7 assays using Ubiquitin-Rho110 as a substrate: The final assay conditions were as follows: The Reaction Buffer consisted of: 50 mM Tris (pH 7.5), 0.01% (v/v) Triton X-100, 2.5 mM Dithiothreitol, 0.1% (w/v) bovine gamma globulin (Sigma cat #G5009-25G); USP7, full-length, native C-Terminus, 0.2 nM; the substrate, Ubiquitin-Rho110 (Boston Biochem cat #U-555), 1 uM. Reactions were carried out for 1 hour at room temperature, in black 20 μL volume polystyrene ProxiPlate 384 F Plus® (PerkinElmer cat #6008260).
Test compounds, including a control USP7 inhibitor (Ub-aldehyde, Boston Biochem cat #U-201) were serially diluted in DMSO, in 384 well clear V-bottom polypropylene plates (Greiner cat #781280). Compounds in DMSO were diluted 10-fold into Reaction Buffer, to achieve 3-fold the final desired concentration. The substrate, Ubiquitin-Rho110 (Boston Biochem cat #U-555), was prepared at 3 μM (3-fold the final concentration) and 5 ul was dispensed into the reaction plate. 5 ul of the compounds (diluted in Reaction Buffer at 3-fold the final concentration) were transferred to the reaction plate. 5 ul of 0.6 nM USP7 (diluted in Reaction Buffer at 3-fold the final concentration) was transferred to the reaction plate to initiate the reaction. After 1 hour incubation at room temperature the reaction was quenched by the addition of 5 ul of 400 mM acetic acid. The enzymatic product was measured by quantifying the fluorescence signal of cleaved Rhodamine-110 using excitation at 485 nm and emission at 535 nm. When pre-incubation of USP7 with compounds was required, the order of addition of reagents was modified to pre-mix the compounds with USP7 (with a 1 hour incubation period), prior to the addition of the substrate and the initiation of the reaction period. Percentage inhibition values were calculated relative to a no enzyme control and a uninhibited enzyme control. Curve fitting and IC50 calculations were carried out using Genedata Screener software.

T1 sequence (Q93009 whole entry): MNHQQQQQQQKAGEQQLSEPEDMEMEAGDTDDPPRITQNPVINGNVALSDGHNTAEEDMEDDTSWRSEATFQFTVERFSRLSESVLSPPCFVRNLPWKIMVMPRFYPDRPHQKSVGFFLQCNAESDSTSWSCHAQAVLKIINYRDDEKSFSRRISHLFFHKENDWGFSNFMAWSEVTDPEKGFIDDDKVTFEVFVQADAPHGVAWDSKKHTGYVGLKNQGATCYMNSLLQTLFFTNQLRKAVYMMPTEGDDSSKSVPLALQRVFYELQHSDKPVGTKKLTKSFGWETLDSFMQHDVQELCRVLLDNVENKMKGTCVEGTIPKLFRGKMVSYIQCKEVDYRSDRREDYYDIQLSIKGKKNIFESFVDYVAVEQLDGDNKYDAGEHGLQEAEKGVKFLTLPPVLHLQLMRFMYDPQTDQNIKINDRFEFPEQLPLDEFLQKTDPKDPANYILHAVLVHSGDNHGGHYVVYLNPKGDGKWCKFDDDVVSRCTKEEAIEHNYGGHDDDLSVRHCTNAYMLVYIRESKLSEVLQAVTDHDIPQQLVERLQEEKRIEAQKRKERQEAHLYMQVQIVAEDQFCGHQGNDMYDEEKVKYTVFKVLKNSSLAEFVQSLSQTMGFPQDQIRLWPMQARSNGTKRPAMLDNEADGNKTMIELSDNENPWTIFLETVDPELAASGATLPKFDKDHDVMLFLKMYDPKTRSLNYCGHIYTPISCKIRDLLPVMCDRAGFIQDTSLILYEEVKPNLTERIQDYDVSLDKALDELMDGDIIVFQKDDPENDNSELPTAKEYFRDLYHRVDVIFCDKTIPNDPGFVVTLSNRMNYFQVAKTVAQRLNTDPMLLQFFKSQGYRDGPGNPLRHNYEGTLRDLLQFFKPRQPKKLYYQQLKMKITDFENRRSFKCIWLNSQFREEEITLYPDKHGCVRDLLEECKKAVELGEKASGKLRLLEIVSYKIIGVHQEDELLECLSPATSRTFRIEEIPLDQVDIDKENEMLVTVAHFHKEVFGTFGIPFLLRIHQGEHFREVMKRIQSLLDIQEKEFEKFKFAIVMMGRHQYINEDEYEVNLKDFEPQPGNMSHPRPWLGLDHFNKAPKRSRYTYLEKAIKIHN

Structure (SMILES) | IC50 [µM]
CCc1c(-c2ccc(O)cc2)cnc(N)c1-c1ccc(N(C)C(=O)OC(C)(C)C)cc1 [Compound 28, tert-butyl N-[4-[2-amino-4-ethyl-5-(4-hydroxyphenyl)-3-pyridyl]phenyl]-N-methyl-carbamate] | > 20
CCc1c(-c2ccc(O)cc2)cnc(N)c1-c1ccc2[nH]nc(C)c2c1 [Compound 59, 4-[6-amino-4-ethyl-5-(3-methyl-1H-indazol-5-yl)-3-pyridyl]phenol] | 19.3
CCc1c(-c2cnn(CC(C)C)c2)cnc(N)c1-c1ccc(O)cc1 [Compound 71, 4-[2-amino-4-ethyl-5-(1-isobutylpyrazol-4-yl)-3-pyridyl]phenol] | 70.6
CCc1c(-c2ccc(=O)[nH]c2)cnc(N)c1-c1ccc(O)cc1 [Compound 58, 5-[6-amino-4-ethyl-5-(4-hydroxyphenyl)-3-pyridyl]-1H-pyridin-2-one] | 93.3
CCc1c(-c2ccccc2C)cnc(N)c1-c1ccc(O)cc1 [Compound 33, 4-[2-amino-4-ethyl-5-(o-tolyl)-3-pyridyl]phenol] | > 63.3
CCc1c(-c2ccc(O)cc2)cnc(N)c1-c1cccc(NC(=O)OC(C)(C)C)c1 [Compound 31, tert-butyl N-[3-[2-amino-4-ethyl-5-(4-hydroxyphenyl)-3-pyridyl]phenyl]carbamate] | > 20
CCc1c(-c2ccc(O)cc2)cnc(NCC2CC2)c1-c1ccc(O)cc1 [Compound 40, 4-[6-(cyclopropylmethylamino)-4-ethyl-5-(4-hydroxyphenyl)-3-pyridyl]phenol] | 19.9
CCc1c(-c2ccc(O)c(C#N)c2)cnc(N)c1-c1ccc(O)cc1 [Compound 94, 5-[6-amino-4-ethyl-5-(4-hydroxyphenyl)-3-pyridyl]-2-hydroxy-benzonitrile] | 9.6
CCc1c(-c2ccnc(C)c2)cnc(N)c1-c1ccc(O)cc1 [Compound 73, 4-[2-amino-4-ethyl-5-(2-methyl-4-pyridyl)-3-pyridyl]phenol] | 47.3
CCCNc1ncc(-c2ccc(O)cc2)c(CC)c1-c1ccc(O)cc1 [Compound 15, 4-[4-ethyl-5-(4-hydroxyphenyl)-6-(propylamino)-3-pyridyl]phenol] | 10.1
CCc1c(-c2ccc(O)cc2)cnc(N)c1-c1ccc2cn[nH]c2c1 [Compound 93, 4-[6-amino-4-ethyl-5-(1H-indazol-6-yl)-3-pyridyl]phenol] | 13.8
CCc1c(-c2cccc3nn(C)cc23)cnc(N)c1-c1ccc(O)cc1 [Compound 85, 4-[2-amino-4-ethyl-5-(2-methylindazol-4-yl)-3-pyridyl]phenol] | 14.6
CCc1c(-c2cncnc2)cnc(N)c1-c1ccc(O)cc1 [Compound 32, 4-(2-amino-4-ethyl-5-pyrimidin-5-yl-3-pyridyl)phenol] | 69.9
CCc1c(-c2cccc(C(F)F)c2)cnc(N)c1-c1ccc(O)cc1 [Compound 74, 4-[2-amino-5-[3-(difluoromethyl)phenyl]-4-ethyl-3-pyridyl]phenol] | 7.8
CCc1c(-c2cccc(C#N)c2)cnc(N)c1-c1ccc(O)cc1 [Compound 49, 3-[6-amino-4-ethyl-5-(4-hydroxyphenyl)-3-pyridyl]benzonitrile] | 5.4
CCc1c(-c2cccc(Cl)c2)cnc(N)c1-c1ccc(O)cc1 [Compound 77, 4-[2-amino-5-(3-chlorophenyl)-4-ethyl-3-pyridyl]phenol] | 11
CCc1c(-c2ccc(C#N)c(F)c2)cnc(N)c1-c1ccc(O)cc1 [Compound 67, 4-[6-amino-4-ethyl-5-(4-hydroxyphenyl)-3-pyridyl]-2-fluoro-benzonitrile] | 45
CCc1c(-c2ccc(O)cc2)cnc(N)c1-c1cccc(N2CCOCC2)c1 [Compound 22, 4-[6-amino-4-ethyl-5-(3-morpholinophenyl)-3-pyridyl]phenol] | > 63.3

Structure (SMILES) | IC50 [µM]
CCc1c(-c2ccc(Cl)cc2)cnc(N)c1-c1ccc(O)cc1 [Compound 80, 4-[2-amino-5-(4-chlorophenyl)-4-ethyl-3-pyridyl]phenol] | 17.6
CCc1c(-c2cccnc2)cnc(N)c1-c1ccc(O)cc1 [Compound 39, 4-[2-amino-4-ethyl-5-(3-pyridyl)-3-pyridyl]phenol] | 41
CCc1c(-c2ccc(O)cc2)cnc(N)c1-c1cccc(C#N)c1 [Compound 19, 3-[2-amino-4-ethyl-5-(4-hydroxyphenyl)-3-pyridyl]benzonitrile] | 9.9
CCc1c(-c2ccc(CO)cc2)cnc(N)c1-c1ccc(O)cc1 [Compound 55, 4-[2-amino-4-ethyl-5-[4-(hydroxymethyl)phenyl]-3-pyridyl]phenol] | > 20
CCc1c(-c2cccc(C(N)=O)c2)cnc(N)c1-c1ccc(O)cc1 [Compound 46, 3-[6-amino-4-ethyl-5-(4-hydroxyphenyl)-3-pyridyl]benzamide] | 114
CCc1c(-c2ccc(F)c(C)c2)cnc(N)c1-c1ccc(O)cc1 [Compound 79, 4-[2-amino-4-ethyl-5-(4-fluoro-3-methyl-phenyl)-3-pyridyl]phenol] | > 20
CCc1c(-c2ccccc2Cl)cnc(N)c1-c1ccc(O)cc1 [Compound 78, 4-[2-amino-5-(2-chlorophenyl)-4-ethyl-3-pyridyl]phenol] | 15.7
CCc1c(-c2ccc(O)cc2)cnc(N)c1-c1cccc(COC)c1 [Compound 24, 4-[6-amino-4-ethyl-5-[3-(methoxymethyl)phenyl]-3-pyridyl]phenol] | > 63.3
CCc1c(-c2ccc(C)nc2)cnc(N)c1-c1ccc(O)cc1 [Compound 35, 4-[2-amino-4-ethyl-5-(6-methyl-3-pyridyl)-3-pyridyl]phenol] | 31.2
CCc1c(-c2ccc(C#N)cc2)cnc(N)c1-c1ccc(O)cc1 [Compound 51, 4-[6-amino-4-ethyl-5-(4-hydroxyphenyl)-3-pyridyl]benzonitrile] | 44.2
CCc1c(-c2ccc(C)cc2)cnc(N)c1-c1ccc(O)cc1 [Compound 36, 4-[2-amino-4-ethyl-5-(p-tolyl)-3-pyridyl]phenol] | 18.1
CCc1c(-c2ccc(O)cc2)cnc(N)c1-c1cccc(NS(C)(=O)=O)c1 [Compound 41, N-[3-[2-amino-4-ethyl-5-(4-hydroxyphenyl)-3-pyridyl]phenyl]methanesulfonamide] | 118
CCc1c(-c2ccc(O)c(C(N)=O)c2)cnc(N)c1-c1ccc(O)cc1 [Compound 95, 5-[6-amino-4-ethyl-5-(4-hydroxyphenyl)-3-pyridyl]-2-hydroxy-benzamide] | 106
CCc1c(-c2cccc(C)c2)cnc(N)c1-c1ccc(O)cc1 [Compound 57, 4-[2-amino-4-ethyl-5-(m-tolyl)-3-pyridyl]phenol] | > 20
CCc1c(-c2ccc(O)cc2)cnc(N)c1-c1ccccc1 [Compound 16, 4-(6-amino-4-ethyl-5-phenyl-3-pyridyl)phenol] | 60.7
CCc1c(-c2ccccc2)cnc(N)c1-c1ccc(O)cc1 [Compound 37, 4-(2-amino-4-ethyl-5-phenyl-3-pyridyl)phenol] | 17.8
CCc1c(-c2cccc(C(=O)N3CCCC3)c2)cnc(N)c1-c1ccc(O)cc1 [Compound 64, [3-[6-amino-4-ethyl-5-(4-hydroxyphenyl)-3-pyridyl]phenyl]-pyrrolidin-1-yl-methanone] | > 63.3
CCc1c(-c2ccc(OC)nc2)cnc(N)c1-c1ccc(O)cc1 [Compound 68, 4-[2-amino-4-ethyl-5-(6-methoxy-3-pyridyl)-3-pyridyl]phenol] | > 63.3
